Assay results from US10005779B2, “1′,4′-thio nucleosides for the treatment of HCV” (priority 2013, dated 2018).
Like-named read-outs stand apart in the source and are kept apart here.

Key:
[1] = Cytotoxicity evaluation, CellTiter-Blue Cell Viability Assay; type: cell-based; settings: human, Zluc cells (HCV replicon cells)
Description: For cytotoxicity evaluation, Zluc cells were treated with compound as described herein, and cell viability was monitored using the CellTiter-Blue Cell Viability Assay (Promega) by adding 20 μL of the assay solution to each well. The plates were then incubated at 37° C./5% CO2 for at least 3 hours.

[2] = tested on: HCV genotype 1b replicon in Huh-7-derived cell line (Zluc); assay: microbe, parasite or virus in culture; type: cell-based; settings: Hepatitis C virus, read-out: HCV Replicon EC50
Description: Huh-7-derived cell line (Zluc) that harbors an HCV genotype 1b replicon and a luciferase reporter gene was grown in Dulbecco's Modified Eagle Medium (DMEM) supplemented with 10% fetal bovine serum, 2 mM GlutaMAX, 1% MEM nonessential amino acids, 100 IU/mL penicillin, 100 μg/mL streptomycin, and 0.5 mg/mL Geneticin® (G418). For dose response testing the cells were seeded in 96-well plates at 7.5×10^3 cells per well in a volume of 50 μL, and incubated at 37° C./5% CO2. Drug solutions were made up freshly in Huh-7 media as 2× stocks. Ten additional 5-fold dilutions were prepared from these stocks in DMEM without G418. At least three hours after Zluc cells were seeded, drug treatment was initiated by adding 50 μL of drug dilutions to the plates in duplicate. […] Cells were then incubated at 37° C./5% CO2. Alternatively, compounds were tested at two concentrations (1 μM and 10 μM). […] For this, media was removed from the plates via gentle tapping. Fifty microliters of ONE-glo luciferase assay reagent was added to each well. […] The EC50 values were calculated from dose response curves from the resulting best-fit equations determined by Microsoft Excel and XLfit 4.1 software.

[3] = biological target: T1, HCV genotype 1b NS5B polymerase containing the S282T mutation (Hepatitis C virus genotype 1b, UniProt Q9WMX2, S2701T); assay: HCV polymerase enzyme assay, S282T mutant; type: biochemical
T1 construct: recombinant HCV polymerases (with a deletion of the 21 carboxy terminal amino acids); made in house
From the text: (§1) Test compounds in the form of nucleoside triphosphates were examined for inhibitory activity against purified HCV polymerase in a standard assay. Bacterial expression constructs encoding the approximately 65 kDa HCV genotype 1b NS5B protein were used to generate recombinant HCV polymerases (with a deletion of the 21 carboxy terminal amino acids). Both the wild-type genotype 1b protein and protein containing the S282T mutation were expressed and purified for use in the enzymatic activity assay.
(§2) The enzymatic activity assay measured the inhibitory effect of increasing concentrations of test compound on the incorporation of α-[^33P]-labeled nucleotide into trichloroacetic acid-precipitable material. Recombinant polymerase and synthetic RNA template were combined in reaction buffer containing ribonucleoside triphosphates, α-[^33P]-labeled nucleotide and eight concentrations of test compound in three-fold dilutions. Reactions were incubated for two hours at 30° C.
(§3) Reactions were terminated by the addition of ice-cold trichloroacetic acid and sodium pyrophosphate to promote precipitation of newly-synthesized ribonucleic acid. Precipitable material from the reactions was collected by filtration onto 96-well filter plates, washed extensively with water, and quantified by liquid scintillation.
(§4) The inhibitory activity of test compounds was determined by fitting results to dose-response curves using XLfit software.

[4] = biological target: T2, wild-type HCV genotype 1b NS5B polymerase (Hepatitis C virus genotype 1b, UniProt Q9WMX2); assay: HCV polymerase enzyme assay, wild-type; type: biochemical
T2 construct: recombinant HCV polymerases (with a deletion of the 21 carboxy terminal amino acids); made in house
From the text: as §1, §2, §3, §4

[5] = Zluc cells, 72 hours of incubation, luciferase readout

| Structure (SMILES) | CC50 at 72 h [1] | EC50 [2, 5] | EC50 ([2]; 72 h) | IC50 [3] | IC50 [4] |
| --- | --- | --- | --- | --- | --- |
| CC(C)OC(=O)[C@H](C)NP(=O)(OCCSC(=O)C(C)(C)C)OC[C@H]1S[C@@H](n2ccc(=O)[nH]c2=O)[C@H](O)[C@@H]1O (single isomer, unassigned) [4b diastereomer 1] | > 50 µM | > 10 µM | – | – | – |
| CC(C)OC(=O)[C@H](C)N[P@@](=O)(OC[C@H]1S[C@@H](n2ccc(=O)[nH]c2=O)[C@H](O)[C@@H]1O)Oc1ccccc1 [Compound 2bi] | > 50 µM | > 10 µM | – | – | – |
| CC(C)OC(=O)[C@@H](C)NP(=O)(OC[C@H]1S[C@@H](n2ccc(=O)[nH]c2=O)[C@H](O)[C@@H]1O)Oc1ccccc1 (mixture of isomers) [2a mixture of diastereomers] | > 50 µM | > 10 µM | – | – | – |
| CC(C)OC(=O)[C@H](C)NP(=O)(OC[C@H]1S[C@@H](n2ccc(=O)[nH]c2=O)[C@](C)(O)[C@@H]1O)Oc1ccccc1 (single isomer, unassigned) [1b diastereomer 1] | > 50 µM | – | > 10 µM | – | – |
| CC(C)OC(=O)[C@H](C)NP(=O)(OCCSC(=O)C(C)(C)C)OC[C@H]1S[C@@H](n2ccc(=O)[nH]c2=O)[C@H](O)[C@@H]1O (mixture of isomers) [4b mixture of diastereomers] | > 50 µM | > 10 µM | – | – | – |
| Nc1nc2c(ncn2[C@@H]2S[C@H](COP(=O)(O)OP(=O)(O)OP(=O)(O)O)[C@@H](O)[C@H]2O)c(=O)[nH]1 [Compound 203] | – | – | – | 1 to 10 µM | 0.25 to 1 µM |
| C[C@@]1(O)[C@H](O)[C@@H](COP(=O)(O)OP(=O)(O)OP(=O)(O)O)S[C@H]1n1ccc(=O)[nH]c1=O [Compound 201] | – | – | – | > 10 µM | 1 to 10 µM |
| CC(C)(C)C(=O)SCCOP(=O)(NCc1ccccc1)OC[C@H]1S[C@@H](n2ccc(=O)[nH]c2=O)[C@H](O)[C@@H]1O (mixture of isomers) [3 mixture of diastereomers] | > 50 µM | > 10 µM | – | – | – |
| CC(C)OC(=O)[C@H](C)N[P@](=O)(OC[C@H]1S[C@@H](n2ccc(=O)[nH]c2=O)[C@H](O)[C@@H]1O)Oc1ccccc1 [Compound 2bii] | > 50 µM | > 10 µM | – | – | – |
| O=c1ccn([C@@H]2S[C@H](COP(=O)(O)OP(=O)(O)OP(=O)(O)O)[C@@H](O)[C@H]2O)c(=O)[nH]1 [Compound 202] | – | – | – | 0.25 to 1 µM | 0.25 to 1 µM |
